{"source": "patent US20130089601A1", "about": "“METHOD FOR TREATING ATHEROSCLEROSIS” (KAOHSIUNG MEDICAL UNIVERSITY, priority 2009, published 2013)", "key": {"[1]": {"test_system": "THP-1 cells adherent to HUVEC", "test": "In vitro adhesion assay of THP-1 cells to HUVEC co-cultured with transfected HASMCs", "type": "cell-based, human", "conditions": "in the presence of ox-LDL, vs NC-miR", "source_text": "MicroRNA-195 mimic, microRNA-195 inhibitor and negative control microRNA (NC-miR) were purchased from Ambion Inc. (TX, USA) with the sequences information shown as microRNA-195 mimic, 5′-[…]-3′ (SEQ ID NO: 5); microRNA-195 inhibitor, 5′-[…]-3′ (SEQ ID NO: 6); negative control sequence, 5′-AGUACUGCUUACGAUACGG-3′ (SEQ ID NO: 7). MicroRNA -195 inhibitor was used to specifically bind to and inhibit endogenous microRNA-195. The NC-miR is a random sequence pre-miR molecule that has been extensively tested in human cell lines and tissues and validated to produce no identifiable effects on known miRNA function. […]\nAt first, human aorta smooth muscle cells (HASMCs) were seeded on the inner side of Millicell® with the PET membrane (Millipore, Hanging 24-well cell culture inserts) at a density of 3×10^5 cells/cm^2 and transfected with microRNA-195 mimic mimic by using lipofectamine2000 for 24 hours. […] Then 4 ml of new culture medium was put in each dish and they were incubated overnight at 37° C. in 5% CO2 and 95% air humidified atmosphere to get ready for use in adhesion experiments of THP-1 cells.\nTo visualize the THP-1 cells adherent to the HUVEC-HASMC co-culture, the THP-1 cells were labeled with a fluorescent dye, calcein-AM. Fluorescence-labeled cells were resuspended in 4 ml of IMDM containing 10% FCS and prepared for use in adhesion experiments. […]"}, "[2]": {"test_system": "VSMC cells", "test": "Chemotactic migration of VSMC (Transwell)", "type": "cell-based, human", "conditions": "100 nM for 24 hours, ox-LDL 40 μg/ml", "description": "Chemotactic migration is another characteristic of atherosclerosis and can be used as another line of evidence of atherosclerotic change for the cultured VSMC cells. This experiment was assayed by using a microchemotactic chamber and polycarbonate filters with pores of […] in diameter (Transwell, Millipore). After incubated with microRNA-195 (Pre-miR miRNA, hsa-miR-195 (product ID PM10827), Ambion Inc.) (100 nM) or an inhibitor (100 nM) for 24 hours, the VSMC cells were trypsinized and suspended with a serum free medium. A volume (300 μl) of a 1×10^4 cell suspension was placed in the upper chamber, the medium containing ox-LDL (40 μg/ml, each) was placed in the lower and upper chamber. The cell suspension was incubated at a temperature of 37° C. under 5% CO2 in air for 24 hours. After incubation, the VSMC cells on the upper side of the filter were scraped off, and the cells that had directly migrated to the lower side of the filter were trypsinized. The cells were fixed with methanol and stained with a Giemsa solution (Merck). Quantification of chemotactic migration was performed using the hemocytometer."}}, "data": [{"substance": "microRNA-195: Pre-miR miRNA, hsa-miR-195 (product ID PM10827), Ambion Inc., which mimics precursor for mature human miR-195; mimic 5′-UAGCAGCACAGAAAUAUUGGC-3′ (SEQ ID NO: 5) (chemistry not given here)", "values": [{"measurement": "THP-1 cells adhering to HUVEC", "setting": "[1]", "value": "fewer"}, {"measurement": "chemotactic migration, percentage of migrated cells compared to control medium cells", "setting": "[2]", "value": 137.6, "unit": "%"}]}]}
